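1) Cells in 96-well plates. 2) Compound, 48 h, 5 concentrations. 3) Linear interpolation between surrounding doses. 4) Unreached endpoint = highest concentration. The concentration for 50% growth inhibition is given as GI50.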 Active and inactive are the calls of the source. Rule as the data show it: active = GI50 up to about 1.1 µM and inactive = higher.
Assays:
Experiment in all cases: inhibition of tumour cell growth, NCI panel, 48 h
[1] = system: RXF 393
[2] = system: EKVX
[3] = system: SW-620
[4] = system: HCC 2998
[5] = system: U-251
[6] = system: SF-539
[7] = system: RXF 631
[8] = system: NCI-H460
[9] = system: LOX IMVI
[10] = system: SK-MEL-5
[11] = system: SNB-75
[12] = system: NCI-H522
[13] = system: ACHN
[14] = system: Malme-3M
[15] = system: A498
[16] = system: SF-295
[17] = system: HOP-18
[18] = system: SK-OV-3
[19] = system: HOP-62
[20] = system: CCRF-CEM
[21] = system: NCI-H23
[22] = system: COLO 205
[23] = system: A549
[24] = system: HCT-116
[25] = system: RPMI-8226
[26] = system: UACC-257
[27] = system: HT-29
[28] = system: M19-MEL
[29] = system: NCI-H226
[30] = system: SK-MEL-2
[31] = system: SN12C
[32] = system: UO-31
[33] = system: HOP-92
[34] = system: IGROV-1
[35] = system: LXFL 529
[36] = system: DMS-273
[37] = system: KM-20L2
[38] = system: DMS-114
[39] = system: SNB-78
[40] = system: KM12
[41] = system: OVCAR-5
[42] = system: SNB-19
[43] = system: CAKI-1
[44] = system: MOLT-4
[45] = system: UACC-62
[46] = system: HCT-15
[47] = system: M14
[48] = system: SF-268
[49] = system: OVCAR-4
[50] = system: 786-0
[51] = system: HL-60
[52] = system: SR
[53] = system: K562
[54] = system: DLD-1
[55] = system: SK-MEL-28
[56] = system: OVCAR-3
[57] = system: DU-145
[58] = system: TK-10
[59] = system: OVCAR-8
[60] = system: PC-3
[61] = system: MDA-MB-231
[62] = system: T47D
[63] = system: Hs-578T
[64] = system: XF498
[65] = system: MCF7
[66] = system: NCI/ADR-RES
[67] = system: BT-549
[68] = system: MDA-MB-435
[69] = system: MDA-N

Measured: GI50

CCNC(=O)COc1ccc(Br)cc1Br
inactive: [1] > 100000 nM | [2] 1980 nM | [3] > 100000 nM | [4] > 100000 nM | [5] > 100000 nM | [6] > 100000 nM | [7] 69700 nM | [8] > 100000 nM | [9] > 100000 nM | [10] 86500 nM | [11] > 100000 nM | [12] > 100000 nM | [13] > 100000 nM | [14] > 100000 nM | [15] > 100000 nM | [16] > 100000 nM | [17] > 100000 nM | [18] > 100000 nM | [19] > 100000 nM | [20] > 100000 nM | [21] > 100000 nM | [22] > 100000 nM | [23] > 100000 nM | [24] > 100000 nM | [25] > 100000 nM | [26] > 100000 nM | [27] > 100000 nM | [28] > 100000 nM | [29] > 100000 nM | [30] 42900 nM | [31] > 100000 nM | [32] > 100000 nM | [33] 29000 nM | [34] > 100000 nM | [35] > 100000 nM | [36] > 100000 nM | [37] > 100000 nM | [38] > 100000 nM | [39] > 100000 nM | [40] > 100000 nM | [41] > 100000 nM | [42] 54700 nM | [43] > 100000 nM | [44] > 100000 nM | [45] 33300 nM | [47] > 100000 nM | [48] > 100000 nM | [49] > 100000 nM | [50] > 100000 nM | [51] > 100000 nM | [52] > 100000 nM | [53] > 100000 nM | [54] > 100000 nM | [55] > 100000 nM | [56] > 100000 nM
> 100000 nM: [46]

COc1cc(/C=C\c2ccc(SC)cc2)cc(OC)c1OC
32.9 nM: [46]
active: [1] 11.7 nM | [3] < 10 nM | [4] < 10 nM | [5] 84.5 nM | [6] < 14.5 nM | [8] 17.1 nM | [9] < 26.2 nM | [10] < 15.2 nM | [11] < 10 nM | [12] 13.3 nM | [13] 467 nM | [57] 43 nM | [14] 381 nM | [15] 883 nM | [16] 11.9 nM | [17] 45.3 nM | [18] 14.1 nM | [19] 17.5 nM | [20] 20.2 nM | [21] 26.8 nM | [22] 27.1 nM | [23] 21.5 nM | [24] < 15.8 nM | [25] 33.1 nM | [27] < 13.7 nM | [28] 27.8 nM | [29] 979 nM | [30] 18.8 nM | [31] 66.7 nM | [59] 23.1 nM | [32] 104 nM | [33] 498 nM | [34] 63.2 nM | [35] < 22.1 nM | [36] 25.8 nM | [37] 18.2 nM | [38] < 20.2 nM | [39] 45.2 nM | [40] 24.1 nM | [60] < 10 nM | [61] 69.8 nM | [42] 24.7 nM | [43] 244 nM | [44] 28.1 nM | [45] 22.7 nM | [63] 13.2 nM | [64] 90.8 nM | [65] 201 nM | [47] 18.2 nM | [66] 39.5 nM | [48] 40.6 nM | [67] < 10 nM | [50] 22.1 nM | [68] < 10 nM | [51] < 12.3 nM | [52] < 10 nM | [53] < 10 nM | [69] < 10 nM | [54] 40.9 nM | [56] 12.8 nM
inactive: [2] 6970 nM | [58] 23700 nM | [41] 1150 nM | [62] 19700 nM | [49] 10700 nM

Reference: ChEMBL document CHEMBL1201862, “PubChem BioAssay data set” (2004)
